Measurements taken from patent publication US8362054B2, “Therapeutic substituted lactams” (Allergan, Inc., priority 2007, dated 2013).

Experiments:
EP4 [1] = target: T1, EP4 (Homo sapiens, UniProt P35408); test: EP4 binding (KI)
Description: (§1) U.S. patent application Ser. No. 11/553,143, filed on Oct. 26, 2006, incorporated by reference herein, describes the methods used to obtain the in vitro data in the table below.

EP4 [2] = target: T1, EP4; test: EP4 flipr functional assay; format: cell-based
Description: as §1

EP2 [3] = target: T2, EP2 (Homo sapiens, UniProt P43116); test: EP2 cAMP assay; format: cell-based
Description: as §1

hEP3A = target: T3, hEP3A (Homo sapiens, UniProt P43115); test: Other receptors functional assay, hEP3A; format: cell-based
T3 sequence (P43115 1-390): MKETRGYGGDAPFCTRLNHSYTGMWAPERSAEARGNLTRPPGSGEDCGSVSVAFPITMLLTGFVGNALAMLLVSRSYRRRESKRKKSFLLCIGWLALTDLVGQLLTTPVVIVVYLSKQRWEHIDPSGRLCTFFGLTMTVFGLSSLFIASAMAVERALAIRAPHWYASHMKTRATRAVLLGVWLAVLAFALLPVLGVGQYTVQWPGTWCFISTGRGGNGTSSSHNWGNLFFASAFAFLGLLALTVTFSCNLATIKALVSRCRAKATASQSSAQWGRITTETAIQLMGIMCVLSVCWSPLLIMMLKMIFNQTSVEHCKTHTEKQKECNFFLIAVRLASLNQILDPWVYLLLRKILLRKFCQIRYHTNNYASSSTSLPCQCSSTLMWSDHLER
Description: as §1

EP2 [4] = target: T2, EP2; test: EP2 binding (Ki)
Description: as §1

EP2 [5] = target: T2, EP2; test: EP2 flipr functional assay; format: cell-based
Description: as §1

T2 sequence (P43116 whole entry): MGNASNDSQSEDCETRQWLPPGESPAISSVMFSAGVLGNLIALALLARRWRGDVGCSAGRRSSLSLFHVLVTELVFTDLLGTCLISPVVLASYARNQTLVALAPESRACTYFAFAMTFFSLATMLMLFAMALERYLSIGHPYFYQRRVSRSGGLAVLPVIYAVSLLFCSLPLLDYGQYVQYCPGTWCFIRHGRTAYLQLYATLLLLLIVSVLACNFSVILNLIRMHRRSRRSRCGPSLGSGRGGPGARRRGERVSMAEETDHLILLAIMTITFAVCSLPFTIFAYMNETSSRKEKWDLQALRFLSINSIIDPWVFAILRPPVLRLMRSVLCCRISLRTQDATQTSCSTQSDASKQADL
T1 sequence (P35408 whole entry): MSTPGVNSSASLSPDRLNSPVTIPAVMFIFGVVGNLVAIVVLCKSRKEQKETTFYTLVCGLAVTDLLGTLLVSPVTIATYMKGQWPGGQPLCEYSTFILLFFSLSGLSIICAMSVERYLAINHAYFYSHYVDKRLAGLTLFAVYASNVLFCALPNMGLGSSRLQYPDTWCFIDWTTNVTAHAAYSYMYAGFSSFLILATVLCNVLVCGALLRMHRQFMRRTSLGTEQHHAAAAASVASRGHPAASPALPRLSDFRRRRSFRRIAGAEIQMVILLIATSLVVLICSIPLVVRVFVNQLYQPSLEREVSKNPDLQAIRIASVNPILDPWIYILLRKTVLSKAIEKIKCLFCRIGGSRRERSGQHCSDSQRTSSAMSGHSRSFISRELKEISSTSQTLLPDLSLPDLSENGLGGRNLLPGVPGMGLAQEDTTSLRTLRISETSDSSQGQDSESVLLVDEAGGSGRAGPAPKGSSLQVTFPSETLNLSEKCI

Ki (EP4 [1]): 7.3 µM
EC50 (EP4 [2]): > 10 µM
EC50 (EP2 [3]): 0.081 µM
EC50 (hEP3A): 6450 nM
Ki (EP2 [4]): 2.57 µM
EC50 (EP2 [5]): 8.51 µM
SMILES: O=C(O)c1ccc(COC[C@H]2CCC(=O)N2Cc2cc(Cl)cc(Cl)c2)s1 [(R)-5-(((1-(3,5-dichlorobenzyl)-5-oxopyrrolidin-2-yl)methoxy)methyl)thiophene-2-carboxylic acid]
